Measured values from US20100063020A1, “ORAL PHARMACEUTICAL FORMULATIONS AND METHODS FOR PRODUCING AND USING SAME” (priority 2004, published 2010).

Key:
[1] = Effect of sodium lauryl sulfate on aqueous solubility of 17-AAG; assay type: physicochemical; conditions: pH 6.0, sodium lauryl sulfate
Text: Formulations of the invention may contain as much as 50% SLS.

[2] = Mouse serum pharmacokinetics of low melt 17-AAG in phospholipids; assay type: in vivo; conditions: Balb/C mice; for 17-AG AUCobs / 17-AG Cmax: metabolite 17-AG
Method: Blood was collected at predetermined intervals and the serum was isolated.
Six to 8 week old Balb/C mice were obtained from Harlan Sprague Dawley (Indianapolis, Ind.). The mice were maintained in sterilized filter topped cages or ventilated caging in a room with a 12 h light/12 h dark photoperiod at temperature of 21-23° C. and a relative humidity of 50±5%. Irradiated pelleted food (Harlan Teklad #7912) and autoclaved deionized water were provided ad libitum. Experiments were carried out under institutional guidelines for the proper and humane use of animals in research established by the Institute for Laboratory Animal Research (ILAR).
Drug solutions were prepared and the concentrations were adjusted so that mice received a dose of 2-15 ml/kg administered intravenously (I.V.) as a bolus, orally, or intra-peritoneally (I.P.). […] In I.V. studies blood was sampled at 1, 5, 15, 30, 90 and 120 min. In oral and I.P. studies blood was sampled at 5, 15, 30, 90, 180 minutes and in some cases up to 240 minutes. Blood was collected in capillary tubes, transferred to microcentrifuge tubes, allowed to clot and centrifuged at 14,000 g for 10 minutes at 4° C. to obtain serum.

[3] = PO 40 mg/kg, lipid complex, low melt form

## C=CCNC1=C2C[C@@H](C)C[C@H](OC)[C@H](O)[C@@H](C)/C=C(\C)[C@H](OC(N)=O)[C@@H](OC)/C=C\C=C(/C)C(=O)NC(=CC1=O)C2=O [Compound 17-AAG, 17-allylamino-17-demethoxygeldanamycin]
[1]
  aqueous solubility versus SLS concentration: increases linearly with increasing concentration of SLS
[2]; IP 40 mg/kg, vehicle PMSE
  17-AAG AUCobs: 1596 µg·min/mL
  17-AAG Cmax: 11.8 µg/mL
  17-AG AUCobs: 655 µg·min/mL
  17-AG Cmax: 5.8 µg/mL
[2]; IP 40 mg/kg, vehicle PMSE, relative to IV 40 mg/kg
  % F: 91%
[2]; IP 40 mg/kg, vehicle PMSE, 17-AAG and 17-AG relative to IV dose
  Total Absorption: 96%
[2]; IV 40 mg/kg, vehicle PET
  17-AAG AUCobs: 1752 µg·min/mL
  17-AAG Cmax: 54.5 µg/mL
  17-AG AUCobs: 595 µg·min/mL
  17-AG Cmax: 6.2 µg/mL
[2]; [3]
  17-AAG AUCobs: 953 µg·min/mL
  17-AAG Cmax: 7.5 µg/mL
[2]; PO 40 mg/kg, lipid complex
  17-AG AUCobs: 532 µg·min/mL
  17-AG Cmax: 4.5 µg/mL
